# From patent US9314541B2, “In vivo imaging method for cancer” (GE Healthcare Limited, priority 2010, dated 2016)
# Legend:
# [1] = In vivo biodistribution method; design: species or system Wistar rats; conditions: for OB:Str 30 min: ratio olfactory bulb to striatum, 30 min after injection
# Method: Imaging agents of the invention were tested in an in vivo biodistribution model.
# Adult male Wistar rats (200-300 g) were injected with 1-3 MBq of test compound via the lateral tail vein. At 2, 10, 30 or 60 min (n=3) after injection, rats were euthanised and tissues or fluids were sampled for radioactive measurement on a gamma counter.
# [2] = biological target: T1, Wistar rat heart PBR (Rattus norvegicus, UniProt P16257); assay: In vitro potency assay: competition against 0.3 nM [3H]PK-11195 for binding to PBR; conditions: non-radioactive analogues tested; vs 0.3 nM [3H]PK-11195; 50 mM Tris-HCl pH 7.4, 10 mM MgCl2, 15 minutes at 25° C.
# T1 construct: from tissue; host or cells: Wistar rat heart
# Method: Non-radioactive analogues of in vivo imaging agents of the invention were tested.
# The reaction was carried out in 50 mM Tris-HCl, pH 7.4 10 mM MgCl2 for 15 minutes at 25° C.
# [3] = cited from earlier work
# [4] = biological target: PBR (Homo sapiens, UniProt P30536); conditions: in vivo; cited from earlier work
# Sequence of PBR (P30536 whole entry, species assumed): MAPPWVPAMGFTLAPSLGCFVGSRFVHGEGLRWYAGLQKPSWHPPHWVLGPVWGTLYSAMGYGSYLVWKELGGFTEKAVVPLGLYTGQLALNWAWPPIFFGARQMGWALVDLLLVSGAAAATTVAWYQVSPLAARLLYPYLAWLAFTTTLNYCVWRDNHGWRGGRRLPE
# [5] = compared with 11C-PK11195; cited from earlier work
structure (smiles),measurement,setting,value
O=C(C1CCCc2c1c1ccccc1n2CC[18F])N1CCCCCC1 (stereo not shown) [compound 9],Brain 2 min (% ID/g),"[1]; brain, 2 min after injection via lateral tail vein, 1-3 MBq, adult male Wistar rats",0.56 % ID/g
same,OB 30 min (% ID/g),"[1]; olfactory bulb, 30 min after injection via lateral tail vein, adult male Wistar rats",0.41 % ID/g
same,OB:Str 30 min,[1],3.72
CCN(CC)C(=O)C1CC(C)Cc2c1c1ccccc1n2CC[18F] (stereo not shown) [compound 11],OB:Str 30 min,[1],3.50
same,Ki,[2],2.12 nM
CN(Cc1ccccc1)C(=O)C1CCCc2c1c1ccccc1n2CC[18F] (stereo not shown) [compound 7],OB:Str 30 min,[1],3.40
CC[C@H](C)N([11CH3])C(=O)c1cc2ccccc2c(-c2ccccc2Cl)n1 [[^11C]PK11195],plasma protein binding,[3],high and variable
same,brain uptake,[4],relatively low and variable
same,levels of non-specific binding,[4],relatively high
CCN(CC)C(=O)Cc1c(-c2ccc(OCC[18F])cc2)nn2c(C)cc(C)nc12 [^18F-DPA-714],bioavailability,[5],increased
